These results are taken from patent EP0660840B1 (priority 1992, dated 1994).

The test system of one assay is plasma ANF. As to the kind of experiment: Effect on rat plasma ANF concentration during continuous ANF infusion (radioimmunoassay). The class given is in vivo, Male Sprague-Dawley rats. As to conditions: about 10 mg/kg p.o., in 10% ethanol/polyethylene glycol 400; conscious rats infused with ANF 450 ng/kg/min i.v. The protocol:
The effect of the compounds of the invention on rat plasma ANF concentration can be determined as follows:
Male Sprague-Dawley rats (275-390 g) are anesthetized with ketamine (150 mg/kg)/acepromazine (10%) and instrumented with catheters in the femoral artery and vein to obtain blood samples and infuse ANF, respectively. The rats are tethered with a swivel system and are allowed to recover for 24 hours before being studied in the conscious, unrestrained state.
In this assay, plasma ANF levels are determined in the presence and absence of NEP inhibition. On the day of study, all rats are infused continuously with ANF at 450 ng/kg/min. i.v. for the entire 5 hours of the experiment. Sixty minutes after beginning the infusion, blood samples for baseline ANF measurements are obtained (time 0) and the rats are then randomly divided into groups treated with the test compound or vehicle. Additional blood samples are taken 30, 60, 120, 180 and 240 minutes after administration of the test compound.
Plasma concentrations are determined by a specific radioimmunoassay. […] The supernatant is decanted and the pellets counted in a gamma counter. […] Plasma ANF levels are expressed as a percent of those measured in vehicle-treated animals which received ANF alone (450 ng/kg/min i.v.).

For assay [1], the system named is DOCA-salt hypertensive rats. As to the kind of experiment: Antihypertensive effect in DOCA-salt hypertensive rats. In kind it is in vivo. As to conditions: 10 mg/Kg p.o., in PEG 400; DOCA-salt hypertensive rat model. The protocol: The antihypertensive effect can be determined in desoxycorticosterone acetate (DOCA)-salt hypertensive rats.
DOCA-salt hypertensive rats (280-380 g) are prepared by the standard method. Rats underwent a unilateral nephrectomy and one week later are implanted with silastic pellets containing 100 mg/kg of DOCA. The rats are maintained on 1% NaCl/0.2% KCI drinking water for three to five weeks until sustained hypertension is established. The antihypertensive activity is evaluated at this time.
Two days before an experiment, the rats are anesthetized with methoxyflurane and instrumented with catheters in the femoral artery to measure arterial blood pressure. Forty-eight hours later, baseline arterial pressure and heart rate are recorded during a 1 hour period. The test compound or vehicle is then administered and the same cardiovascular parameters are monitored for an additional 5 hours.

`O=P(CN[C@@H](Cc1ccc(-c2ccccc2)cc1)c1nnn[nH]1)(Oc1ccccc1)Oc1ccccc1` [Example 3, (S)-[2-Biphenyl-4-yl-1-(1H-tetrazol-5-yl)-ethylamino]-methylphosphonic acid diphenyl ester]: the “plasma ANF levels” value in the assay with plasma ANF was “significant increases”. Further, the blood pressure entry in assay [1] is on record as “significant reduction”.
